We go through 4 compounds from publication PMC12186257, “Serendipitous and Systematic Chemoproteomic Discovery of MBLAC2, HINT1, and NME1‑4 Inhibitors from Histone Deacetylase-Targeting Pharmacophores” (ACS Chemical Biology, 2025).

Series [1] has as its target recombinant NME1–4. In words: nucleoside diphosphate kinase activity assay (ATP production from ADP and GTP, Kinase-GLO). The settings on record: ADP (150 μM) and GTP (150 μM); range over all four enzymes; read-out: EC50 inhibition of NME1–4. The class given is biochemical.
Method: To evaluate whether KV-50 binding affects NME activity, we performed enzyme activity assays using recombinant NME1–4. The assay measured NME-catalyzed production of ATP from ADP (150 μM) and GTP (150 μM).
Nucleotide diphosphate kinase activity assays. The phosphotransfer activity of the NDPKs (NME1-4) was measured in a reaction mixture containing buffer A (20 mM Tris-HCl pH 8.0, 150 mM NaCl, and 1 mM MgCl2). All the samples were pipetted in replicates on a 384 well plate. One volume of the respective NDPK protein solution (NME1-4) was added from stock proteins (diluted in buffer a to a concentration of 300 pM) to the wells in four replicates. To these wells, one volume of the inhibitors (Six dilutions were prepared, starting with a 30 µM stock solution and then performing three-fold serial dilutions) was added and incubated at room temperature for 30 minutes. Then, one volume of the substrate mixture (300 μM GTP and 30 μM ADP) was added to the protein-inhibitor mixture-containing wells and incubated at room temperature for 30 minutes. Finally, three volumes of the Kinase-GLO reagent (Promega V6711) containing an ATP-dependent firefly luciferase were added to all the wells and five minutes later, the luminescence was measured using a plate reader. Eight different concentrations of ATP (0 - 10 μM) were used as standards for a calibration curve to calculate the amount of ATP produced by the different NDPKs.
In series [2] the test system is HeLa cells. Kind of series: clathrin-mediated endocytosis of fluorescently labeled transferrin. The class given is cell-based.
Method: To test this hypothesis, we measured clathrin-mediated endocytosis of fluorescently labeled transferrin (TF) in the presence and absence of MBLAC2 inhibitors.
CME of transferrin and confocal microscopy analyses.For transferrin uptake experiments HeLa cells were seeded on Matrigel-coated coverslips, and incubated with 0.1 % DMSO, or with 100 µM dynasore, 20 µM KV50, 2 µM KV65, or 2 µM KV79 in media containing 10% FCS at 37°C for 20 h.
Series [3] concerns the target casein kinase 2 (CK2) complex proteins (CSNK2A1/3, CSNK2A2, CSNK2B, EIF3J). Kind of series: Kinobead competition assay. The note with it: dose-dependent competition. The class given is binding, human. An excerpt: The binding of KV-24 and KV-30 to the nucleotide-binding pocket raises the question of whether these compounds also target other nucleotide-binding proteins, such as kinases. To evaluate potential off-target effects, we performed Kinobead competition assays. This chemoproteomic approach is conceptually very similar to the one used here in that broad spectrum kinase inhibitors are immobilized on beads. […] PDE1C is a cAMP/cGMP nucleotide-binding protein that features two divalent metal cation cofactors. The hydroxamic acid moiety of KV-24 might chelate these metal cofactors, supporting the hypothesis that KV-24 binds the active site of PDE1C. […]
Given that local GTP production by NME1 and NME2 is essential for fueling dynamin-driven endocytosis, we investigated the effect of KV-50-mediated NME1/2 inhibition on fluorescent transferrin (TF) uptake in cells. HeLa cells were treated with KV-50 or known endocytosis inhibitors (Pitstop-2 and Dynasore), and surface-bound and internalized fluorescent TF were quantified. […]
LC-MS/MS. The different sample types were measured with different LC-MS/MS settings. MBLAC2 2-dose competition assays were measured with the Lumos1 setup, MBLAC2 9-dose competition assays were measured with the Lumos2 setup, and kinobeads assays were measured with the Eclipse setup. […]

The test system of series [4] is compound-binding proteins such as HDACs, MBLAC2, ISOC1/2, ALDH2, and GATD3A. Kind of series: chemoproteomic competition assay, proteome-wide target binding profile. On the set-up: species or system human. The note with it: dose-dependent competition. The method, then: (§1) MBLAC2 is a metalloenzyme predicted to harbor one or two Zn^2+ ions in its active site. […] In this assay, compounds of interest are incubated at increasing concentrations with a mixture of lysates of MV4–11 and SW620 cells. The compound-treated lysates are then mixed with bead-immobilized hydroxamic acid-containing compounds iA, iC, and iQ (immobilized Quisinostat), which pull down compound-binding proteins such as HDACs, MBLAC2, ISOC1/2, ALDH2, and GATD3A (Figure a) that can be identified and quantified by mass spectrometry (MS). Proteins targeted by the library compounds in a preincubation step are prevented from being pulled down by the immobilized probes, leading to a dose-dependent reduction in MS signal. Initially, 12 metal-chelating compounds were profiled at two concentrations (10 μM and 100 μM) (Figure S3).
(§2) Chemoproteomic competition assays
Sample preparation. For the MBLAC2 and HDAC inhibitor competition assay, the generation of affinity matrices, lysate generation, pulldown assay, and sample preparation were performed as described in detail in REF1. For the kinobeads assay, the generation of affinity matrices, lysate generation, pulldown assay, and sample preparation were performed as described in detail in REF2.
(§3) LC-MS/MS. The different sample types were measured with different LC-MS/MS settings. MBLAC2 2-dose competition assays were measured with the Lumos1 setup, MBLAC2 9-dose competition assays were measured with the Lumos2 setup, and kinobeads assays were measured with the Eclipse setup.
Peptides were analyzed via LC–MS/MS on a Dionex Ultimate3000 nano HPLC coupled to either one of two Orbitrap Fusion Lumos mass spectrometers, or to an Orbitrap Eclipse mass spectrometer, operated via the Thermo Scientific Xcalibur software.
In the all setups, peptides were loaded on a trap column (100 μm × 2 cm, packed in-house with Reprosil-Gold C18 ODS-3 5 μm resin, Dr. Maisch, Ammerbuch) and washed with 5 μL/min solvent A (0.1% formic acid in HPLC grade water) for 10 min. Peptides were then separated on an analytical column (75 μm × 40 cm, packed in-house with Reprosil-Gold C18 3μm resin, Dr. Maisch, Ammerbuch) using a 50 min gradient ranging from 4 to 32% solvent B (0.1% formic acid, 5% DMSO in acetonitrile) in solvent A (0.1% formic acid, 5% DMSO in HPLC grade water) at a flow rate of 300 nL/min.
The mass spectrometers were operated in data-dependent mode, automatically switching between MS1 and MS2 spectra. MS1 spectra were acquired over a mass-to-charge (m/z) range of 360–1300 m/z at a resolution of 60,000 (at m/z 200) in the Orbitrap using a maximum injection time of 50 ms and an automatic gain control (AGC) target value of 4e5.
In Lumos settings, up to 12 peptide precursors were isolated in (isolation width of 1.2 Th for Lumos1 and 1.7 for Lumos2, maximum injection time of 75 ms, AGC value of 1e5 for Lumos1 and 2e5 for Lumos2), fragmented by HCD using 30% normalized collision energy (NCE) and analyzed in the Orbitrap at a resolution of 15,000 (Lumos2) or 30,000 (Lumos1). The dynamic exclusion duration of fragmented precursor ions was set to 20 s (Lumos1) or 30 s (Lumos2). In Eclipse measurements, a cycle time of 2 s was chosen. Peptides were isolated in the quadrupole with an isolation offset of 1.2 (isolation width of 1.2 Th, maximum injection time of 54 ms, AGC target of 200%) and fragmented by […]

Series [5] deals with SW620 cells. Kind of series: SW620 confluency and metabolic activity (Alamar blue assay). The class given is cell-based. The settings on record: Homo sapiens, SW-620. (Alamar Blue is a resazurin reagent that responds to reducing activity.)
The target in series [6] is T1, MBLAC2 (Homo sapiens, UniProt Q68D91).
T1 construct: incubated at increasing concentrations with a mixture of lysates of MV4–11 and SW620 cells; endogenous in cells; host or cells: mixed lysate of MV4-11 and SW620 cells
T1 sequence (Q68D91 1-279): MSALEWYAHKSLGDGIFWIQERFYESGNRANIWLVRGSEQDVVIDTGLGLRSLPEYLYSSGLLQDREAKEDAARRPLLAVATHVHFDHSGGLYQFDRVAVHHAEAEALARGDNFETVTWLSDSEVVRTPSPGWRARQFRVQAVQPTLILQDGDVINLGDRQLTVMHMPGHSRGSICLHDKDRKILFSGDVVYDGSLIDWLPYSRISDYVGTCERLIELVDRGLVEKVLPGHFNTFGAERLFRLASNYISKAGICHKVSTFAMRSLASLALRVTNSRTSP
Kind of series: chemoproteomic competition assay (MV4-11/SW620 lysate, iA/iC/iQ beads, MS readout). The class given is binding. The settings on record: two-dose (1 μM and 10 μM) assay.

In series [7] the target is T2, HDAC6 (Homo sapiens, UniProt Q9UBN7).
T2 construct: incubated at increasing concentrations with a mixture of lysates of MV4–11 and SW620 cells; endogenous in cells; host or cells: mixed lysate of MV4-11 and SW620 cells
T2 sequence (Q9UBN7 1-1215): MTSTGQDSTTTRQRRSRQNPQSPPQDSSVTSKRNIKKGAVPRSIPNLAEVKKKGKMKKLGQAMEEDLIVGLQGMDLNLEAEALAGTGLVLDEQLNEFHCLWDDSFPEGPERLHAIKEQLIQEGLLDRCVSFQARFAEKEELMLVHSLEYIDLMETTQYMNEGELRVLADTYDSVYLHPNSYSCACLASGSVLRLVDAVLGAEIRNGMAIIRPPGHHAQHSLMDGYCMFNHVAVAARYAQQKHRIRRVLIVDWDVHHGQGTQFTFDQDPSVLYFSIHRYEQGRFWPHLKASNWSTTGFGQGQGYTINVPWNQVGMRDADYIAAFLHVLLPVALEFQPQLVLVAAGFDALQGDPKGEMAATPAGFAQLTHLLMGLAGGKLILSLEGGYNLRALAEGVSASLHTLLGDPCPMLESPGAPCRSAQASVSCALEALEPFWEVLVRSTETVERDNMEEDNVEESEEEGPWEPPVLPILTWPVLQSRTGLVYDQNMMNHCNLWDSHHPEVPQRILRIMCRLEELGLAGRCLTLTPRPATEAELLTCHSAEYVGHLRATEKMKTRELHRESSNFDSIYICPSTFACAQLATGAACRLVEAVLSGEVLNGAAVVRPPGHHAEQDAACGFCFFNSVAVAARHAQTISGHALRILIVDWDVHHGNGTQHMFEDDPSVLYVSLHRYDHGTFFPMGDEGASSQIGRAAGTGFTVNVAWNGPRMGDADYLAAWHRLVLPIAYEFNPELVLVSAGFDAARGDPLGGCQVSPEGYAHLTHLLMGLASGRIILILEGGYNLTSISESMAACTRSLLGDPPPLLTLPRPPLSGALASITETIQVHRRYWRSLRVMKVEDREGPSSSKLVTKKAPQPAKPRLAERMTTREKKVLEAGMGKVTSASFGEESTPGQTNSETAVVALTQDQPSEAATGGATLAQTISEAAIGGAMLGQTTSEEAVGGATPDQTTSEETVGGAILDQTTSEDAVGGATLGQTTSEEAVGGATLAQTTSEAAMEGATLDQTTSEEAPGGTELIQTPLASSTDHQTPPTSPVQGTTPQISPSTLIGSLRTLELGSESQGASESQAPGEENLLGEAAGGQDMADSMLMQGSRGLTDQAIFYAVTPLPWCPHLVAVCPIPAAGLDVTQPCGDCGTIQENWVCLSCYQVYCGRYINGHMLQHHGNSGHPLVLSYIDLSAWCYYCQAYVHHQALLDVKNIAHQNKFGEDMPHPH
The series is described as above. The class given is binding. The note with it: two-dose (1 μM and 10 μM) assay. The method, then: as §1, with “Initially, 12 metal-chelating compounds were profiled at two concentrations (10 μM and 100 μM) (Figure S3).” left out
as §2
(§4) Sample preparation. […]
as §3
(§5) Peptides were analyzed via LC–MS/MS on a Dionex Ultimate3000 nano HPLC coupled to either one of two Orbitrap Fusion Lumos mass spectrometers, or to an Orbitrap Eclipse mass spectrometer, operated via the Thermo Scientific Xcalibur software. […]

Series [8] concerns NMEs. The settings on record: free nonacetylated Quisinostat; prior competition experiments; cited from earlier work.
In series [9] the target is T3, ISOC1 (Homo sapiens, UniProt Q96CN7).
T3 construct: incubated at increasing concentrations with a mixture of lysates of MV4–11 and SW620 cells; endogenous in cells; host or cells: mixed lysate of MV4-11 and SW620 cells
T3 sequence (Q96CN7 1-298): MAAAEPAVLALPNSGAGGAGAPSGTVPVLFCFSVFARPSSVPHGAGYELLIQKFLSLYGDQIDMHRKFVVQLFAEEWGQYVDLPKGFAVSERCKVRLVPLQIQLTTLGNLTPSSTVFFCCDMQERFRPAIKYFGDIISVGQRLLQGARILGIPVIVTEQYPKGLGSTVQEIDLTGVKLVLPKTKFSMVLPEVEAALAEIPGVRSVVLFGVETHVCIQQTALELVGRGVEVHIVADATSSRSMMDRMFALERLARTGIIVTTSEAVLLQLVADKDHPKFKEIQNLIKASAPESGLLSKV
In words: chemoproteomic competition assay (MV4-11/SW620 lysate, iA/iC/iQ beads, MS readout). The class given is binding. The note with it: nine-dose competition assay. The method, then: as §1, §2, §4, §3, §5
In Lumos settings, up to 12 peptide precursors were isolated in (isolation width of 1.2 Th for Lumos1 and 1.7 for Lumos2, maximum injection time of 75 ms, AGC value of 1e5 for Lumos1 and 2e5 for Lumos2), fragmented by HCD using 30% normalized collision energy (NCE) and analyzed in the Orbitrap at a resolution of 15,000 (Lumos2) or 30,000 (Lumos1). […] Peptides were isolated in the quadrupole with an isolation offset of 1.2 (isolation width of 1.2 Th, maximum injection time of 54 ms, AGC target of 200%) and fragmented by HCD with an NCE of 30% and analyzed in the Orbitrap at a resolution of 30,000. […]

Like-named read-outs stand apart in the source and are kept apart here.

Take `Cl.O=C(NO)c1ccc(-c2nc3ccccc3c3[nH]c4ccccc4c23)cc1` [KV-50]: the EC50 in series [1] fell in the range of 2000 to 5000 nM; in series [3] it was 1000 to 2000 nM. Besides, the “morphological changes” value in series [2] (HeLa cells under TF assay conditions, similar in SW-620 and HEK293T) was “rounding and swelling of cells”. In addition, the “ratio of internalized TF to surface-bound TF” value in series [2] (HeLa cells, 20 µM, 20 h) is on record as “reduced ratio of internalized TF to surface-bound TF”. Also, the “targets / off-targets bound” value in series [4] is “bound to HINT1 and NME4”. Besides, the IC50 in [5] (SW620, Alamar blue, read-out: concentration decreasing metabolic activity by 50%) came out at 3600 nM; in series [5] (read-out: concentration reducing SW620 cell confluency by 50%), 870 nM.

On to `CC(=O)c1ccc(CN2c3ccccc3Sc3ccccc32)cc1` [MM-20], for which the “concentration up to which no binding to MBLAC2” value in series [6] is greater than 10 µM. Also, the “concentration up to which no binding to HDAC6” value in series [7] was greater than 10 µM.

On to `Cn1cc(CNCC2CCN(c3ncc(C(=O)NO)cn3)CC2)c2ccccc21` [Quisinostat], for which the “concentration up to which no binding to NMEs” value in [8] was greater than 30 µM.

For `COc1ccc(N(C)c2nc(C)nc3ccccc23)cc1OCCCC(=O)NO` [SKLB-23bb], the EC50 in series [9] was determined as 5600 nM.

What is called EC50 is the concentration needed to bring the measured effect to its halfway point.
